We go through 14 compounds from article PMC11247487, “Discovery of Dual MER/AXL Kinase Inhibitors as Bifunctional Small Molecules for Inhibiting Tumor Growth and Enhancing Tumor Immune Microenvironment” (Journal of Medicinal Chemistry, 2024).

Structures are written as SMILES.

The experiment concerns Ba/F3-MER cells. The experiment can be described thus: Cell viability assay (MTS). The experiment is classed as cell-based. The following applies: 72 h.
The compound `CNCc1cccc(-c2c(-c3cnn(C)c3)oc3ncnc(Oc4ccc(NC(=O)c5cccn(-c6ccc(F)cc6)c5=O)cc4)c23)c1` [Compound 32, 1-(4-Fluorophenyl)-N-{4-[(5-{3-[(methylamino)methyl]phenyl}-6-(1-methyl-1H-pyrazol-4-yl)furo[2,3-d]pyrimidin-4-yl)oxy]phenyl}-2-oxo-1,2-dihydropyridine-3-carboxamide] returned an IC50 of 5 nM.

Turning to `Cc1nn(C)cc1-c1oc2ncnc(Oc3ccc(NC(=O)c4cccn(-c5ccc(F)cc5)c4=O)cc3)c2c1-c1cccc(N)c1` [Compound 23, N-(4-{[5-(3-Aminophenyl)-6-(1,3-dimethyl-1H-pyrazol-4-yl)furo[2,3-d]pyrimidin-4-yl]oxy}phenyl)-1-(4-fluorophenyl)-2-oxo-1,2-dihydropyridine-3-carboxamide], the IC50 stood at 5.9 nM.

For `Cn1cc(-c2oc3ncnc(Oc4ccc(NC(=O)c5cccn(-c6ccc(F)cc6)c5=O)cc4)c3c2-c2ccccc2N)cn1` [Compound 36, N-(4-{[5-(2-Aminophenyl)-6-(1-methyl-1H-pyrazol-4-yl)furo[2,3-d]pyrimidin-4-yl]oxy}phenyl)-1-(4-fluorophenyl)-2-oxo-1,2-dihydropyridine-3-carboxamide], the half-maximal inhibitory concentration (IC50) amounted to 2.1 nM.

For `Nc1cccc(-c2coc3ncnc(Oc4ccc(NC(=O)c5cccn(-c6ccc(F)cc6)c5=O)cc4)c23)c1` [Compound 18, N-(4-{[5-(3-Aminophenyl)furo[2,3-d]pyrimidin-4-yl]oxy}phenyl)-1-(4-fluorophenyl)-2-oxo-1,2-dihydropyridine-3-carboxamide], half-maximal inhibition (IC50) was put at 910 nM.

In turn, `Nc1cccc(-c2c(Br)oc3ncnc(Oc4ccc(NC(=O)c5cccn(-c6ccc(F)cc6)c5=O)cc4)c23)c1` [Compound 19, N-(4-{[5-(3-Aminophenyl)-6-bromofuro[2,3-d]pyrimidin-4-yl]oxy}phenyl)-1-(4-fluorophenyl)-2-oxo-1,2-dihydropyridine-3-carboxamide] showed an IC50 of 428 nM.

`Cn1cc(-c2oc3ncnc(Oc4ccc(NC(=O)c5cccn(-c6ccc(F)cc6)c5=O)cc4)c3c2-c2ccc(N)cc2)cn1` [Compound 37, N-(4-{[5-(4-Aminophenyl)-6-(1-methyl-1H-pyrazol-4-yl)furo[2,3-d]pyrimidin-4-yl]oxy}phenyl)-1-(4-fluorophenyl)-2-oxo-1,2-dihydropyridine-3-carboxamide] yielded an IC50 of 1.2 nM. This IC50 lies about 360-fold lower than the previous one.

Consider `Cc1oc2ncnc(Oc3ccc(NC(=O)c4cccn(-c5ccc(F)cc5)c4=O)cc3)c2c1-c1cccc(N)c1` [Compound 20, N-(4-{[5-(3-Aminophenyl)-6-methylfuro[2,3-d]pyrimidin-4-yl]oxy}phenyl)-1-(4-fluorophenyl)-2-oxo-1,2-dihydropyridine-3-carboxamide], for which the IC50 came to 211 nM.

For the compound `CC(=O)Nc1ccc(-c2c(-c3cnn(C)c3)oc3ncnc(Oc4ccc(NC(=O)c5cccn(-c6ccc(F)cc6)c5=O)cc4)c23)cc1` [Compound 38, N-[4-({5-[4-(Acetylamino)phenyl]-6-(1-methyl-1H-pyrazol-4-yl)furo[2,3-d]pyrimidin-4-yl}oxy)phenyl]-1-(4-fluorophenyl)-2-oxo-1,2-dihydropyridine-3-carboxamide], the IC50 was determined as 0.4 nM.

On to `Cn1cc(-c2cc3c(Oc4ccc(NC(=O)c5cccn(-c6ccc(F)cc6)c5=O)cc4)ncnc3o2)cn1` [Compound 27, 1-(4-Fluorophenyl)-N-(4-{[6-(1-methyl-1H-pyrazol-4-yl)furo[2,3-d]pyrimidin-4-yl]oxy}phenyl)-2-oxo-1,2-dihydropyridine-3-carboxamide], for which the IC50 stood at 172 nM.

Regarding `Nc1cccc(-c2c(-c3ccsc3)oc3ncnc(Oc4ccc(NC(=O)c5cccn(-c6ccc(F)cc6)c5=O)cc4)c23)c1` [Compound 26, N-(4-{[5-(3-Aminophenyl)-6-(thiophen-3-yl)furo[2,3-d]pyrimidin-4-yl]oxy}phenyl)-1-(4-fluorophenyl)-2-oxo-1,2-dihydropyridine-3-carboxamide], half-maximal inhibition (IC50) required 4.5 nM.

As for `Cc1noc(C)c1-c1oc2ncnc(Oc3ccc(NC(=O)c4cccn(-c5ccc(F)cc5)c4=O)cc3)c2c1-c1cccc(N)c1` [Compound 24, N-(4-{[5-(3-Aminophenyl)-6-(3,5-dimethyl-1,2-oxazol-4-yl)furo[2,3-d]pyrimidin-4-yl]oxy}phenyl)-1-(4-fluorophenyl)-2-oxo-1,2-dihydropyridine-3-carboxamide], the IC50 came out at 1050 nM.

As for `Nc1cccc(-c2c(-c3cn[nH]c3)oc3ncnc(Oc4ccc(NC(=O)c5cccn(-c6ccc(F)cc6)c5=O)cc4)c23)c1` [Compound 21, N-(4-{[5-(3-Aminophenyl)-6-(1H-pyrazol-4-yl)furo[2,3-d]pyrimidin-4-yl]oxy}phenyl)-1-(4-fluorophenyl)-2-oxo-1,2-dihydropyridine-3-carboxamide], inhibition was half-maximal at 10.6 nM (IC50).

In turn, `CN(C)c1cccc(-c2c(-c3cnn(C)c3)oc3ncnc(Oc4ccc(NC(=O)c5cccn(-c6ccc(F)cc6)c5=O)cc4)c23)c1` [Compound 30, N-[4-({5-[3-(Dimethylamino)phenyl]-6-(1-methyl-1H-pyrazol-4-yl)furo[2,3-d]pyrimidin-4-yl}oxy)phenyl]-1-(4-fluorophenyl)-2-oxo-1,2-dihydropyridine-3-carboxamide] showed an IC50 of 13.4 nM.

On to `Nc1cccc(-c2c(-c3cc[nH]n3)oc3ncnc(Oc4ccc(NC(=O)c5cccn(-c6ccc(F)cc6)c5=O)cc4)c23)c1` [Compound 25, N-(4-{[5-(3-Aminophenyl)-6-(1H-pyrazol-3-yl)furo[2,3-d]pyrimidin-4-yl]oxy}phenyl)-1-(4-fluorophenyl)-2-oxo-1,2-dihydropyridine-3-carboxamide], for which the IC50 turned out to be 77.1 nM.
